Columns and labels:
[1] = system: LDH present in cell lysates, Ln18; test: Spectrophotometric LDH kinetics (NADH absorbance at 340 nm), cell lysates; format: biochemical, human; conditions: 0.75 mM 5-ALA, no inhibitor: -1.48
Description: (§1) The cells used in the present examples were human glioblastoma multiforme (GBM) cell lines, purchased from the American Type Culture Collection (ATCC, Manassas, VA, USA). These cell lines were LN18 (ATCC®, CRL-2610™), U87 (ATCC®, HTB-14™), T98G (ATCC®, CRL-1690™) and M059K (ATCC®, CRL-2365™). All cells were grown in RPMI 1640 without phenol red, supplemented with 10% fetal bovine serum (FBS) and penicillin/streptomycin at 37 °C in a 5% CO2 and 95% humidified atmosphere.
(§2) A. enzyme solutions. 0.5 mL of an aqueous LDH solution was mixed with 0.5 mL reaction buffer to start the LDH reduction of pyruvate. The final LDH concentration was always 5 µM.

[2] = system: LDH present in cell lysates, U87; test: as above; format: biochemical, human; conditions: 0.75 mM 5-ALA, no inhibitor: -1.43
Description: as §1, §2

U87 [3] = test: Seahorse XF Real-Time ATP Rate Assay; format: cell-based, human; conditions: U87 cells, 1000µM of 5-ALA, change versus control
Description: as §1
(§3) In order to study the changes in cell metabolism in GBM cells following the in-situ addition of 5-ALA, the Seahorse XFe96 analyzer (Agilent Technologies) was employed. Briefly, 4×10^4 cells were seeded in a seahorse plate and incubated overnight in complete RPMI 1640 medium at 37 °C, and a 5% CO2 humidified atmosphere. One hour prior to the experiments, the cells had their media changed to unbuffered XF RPMI pH 7.4 medium supplemented with 10 mM glucose, 2 mM L-glutamine, and 2 mM sodium pyruvate and were incubated for one hour at 37 °C, 0% CO2 atmosphere. The basal oxygen consumption and media acidification rates (OCR and ECAR respectively) of the cell groups were measured in four cycles. After those four cycles injections of i) 5-ALA (500 - 1000 µM), ii) Oligomycin A (OLIGO) 1 µM, iii) Carbonyl cyanide 4-(trifluoromethoxy)phenylhydrazone (FCCP) 1 µM and iv) Antimycin A (ANTI A) and Rotenone (ROT) 2 µM each were sequentially performed for 3 measurement cycles each.
(§4) The ATP contributions of mitochondrial respiration and cell glycolysis in U87, T98G, M059K and LN18 human GBM cells in the presence or absence of 5-ALA, were deconvoluted quantified by use of the Seahorse XF Real-Time ATP Rate Assay Kit. In brief the same protocol as in Example 1 was followed without the injection of FCCP and with only three basal measurement cycles, while the corresponding final concentrations of OLIGO and ROT/ANTI A were this time 1.5 and 0.5 µM. The ATP rates were determined with use of the Agilent Seahorse XF Real-Time ATP Rate Assay Report Generator.
(§5) The wells in the bottom row of the seahorse plates were in all cases left devoid of cells and were used as blank values. These were automatically subtracted by the Seahorse analyser software.
(§6) The changes in ATP production from either respiration or glycolysis were evaluated upon addition of 1000µM of 5-ALA.

T98G [4] = test: Seahorse XF Real-Time ATP Rate Assay; format: cell-based, human; conditions: T98G cells; 1000µM of 5-ALA; change versus control
Description: as §1, §3, §4, §5, §6

M059K = test: Seahorse XF Real-Time ATP Rate Assay; format: cell-based, human; conditions: M059K cells; 1000µM of 5-ALA; change versus control
Description: as §1, §3, §4, §5, §6

LN18 [5] = test: Seahorse XF Real-Time ATP Rate Assay; format: cell-based, human; conditions: LN18 cells; 1000µM of 5-ALA; change versus control
Description: as §1, §3, §4, §5, §6

U87 [6] = test: MTT cell viability assay; format: cell-based, human; conditions: U87 cells
Description: as §1
(§7) The cells were incubated with 5, 10 and 20 mM 5-ALA for three days and each day the effect of 5-ALA on their viability was assessed by standard MTT assays at 24, 48 and 72h following incubation. The results are shown in Figure 5 (Error bars represent one SD).

T98G [7] = test: MTT cell viability assay; format: cell-based, human; conditions: T98G cells; 10mM 5-ALA; after 72h incubation
Description: as §1, §7

LN18 [8] = test: MTT cell viability assay; format: cell-based, human; conditions: LN18 cells
Description: as §1, §7

U87 [9] = test: Seahorse XFe96 metabolic assay (OCR/ECAR), in-situ injection of 5-ALA; format: cell-based, human; conditions: U87 cells; 5-ALA 500 - 1000 µM injected in situ; Figure 1
Description: as §1, §3

T98G [10] = test: as above; format: cell-based, human; conditions: T98G cells; 5-ALA 500 - 1000 µM injected in situ; Figure 1
Description: as §1, §3

LN18 [11] = test: as above; format: cell-based, human; conditions: LN18 cells; 5-ALA 500 - 1000 µM injected in situ; Figure 1
Description: as §1, §3

MO59K = test: as above; format: cell-based, human; conditions: MO59K cells; 5-ALA 500 - 1000 µM injected in situ; Figure 1
Description: as §1, §3

[12] = system: LDH present in cell lysates, M059K; test: Spectrophotometric LDH kinetics (NADH absorbance at 340 nm), cell lysates; format: biochemical, human; conditions: 0.75 mM 5-ALA, no inhibitor: -1.47
Description: as §1
(§8) A. enzyme solutions. 0.5 mL of an aqueous LDH solution was mixed with 0.5 mL reaction buffer to start the LDH reduction of pyruvate. The final LDH concentration was always 5 µM. […] The final concentration of 5-ALA in the total volume of the reaction mix (1 mL) was 5 mM for 5-ALA. In the enzymatic assays LDH refers to the LDH-A isoform.
(§9) In the second phase of the experiments, the enzymatic activity of LDH present in cell lysates was investigated.
(§10) Cell lysates were obtained from LN18, T98G, U87 and M059K GBM cells. In brief, cells from confluent T175 flasks were harvested with the use of TrypLE™ Express Enzyme (Gibco, REF# 12604021) and resuspended in ddH2O with Triton™ X-100 (0,25%). The cell lysate measurements were performed according to the enzymatic solution measurents, however in this case, cell lysates equivalent to […] were each time added to the H2O half of the reaction mix. […]

[13] = system: LDH present in cell lysates, T98G; test: as above; format: biochemical, human; conditions: 0.75 mM 5-ALA, no inhibitor: -1.20
Description: as §1, §8, §9, §10

LDH-A isoform = LDH-A isoform (Homo sapiens, UniProt P00338); test: Spectrophotometric LDH kinetics (NADH absorbance at 340 nm), enzyme solution
[14] = 10mM 5-ALA, all time points (24, 48 and 72h)
[15] = 20 mM 5-ALA, compared with the 90-98% reduction at 10mM

For NCC(=O)CCC(=O)O [5-ALA, 5-Aminolevulinic acid], the “initial slope of NADH absorbance curve (LDH Vmax for the cell lysate volume studied)” value [1] was -0.47, the “initial slope of NADH absorbance curve (LDH Vmax for the cell lysate volume studied)” value [2] was -0.32 and the “reduction in glycolytic ATP production” value (U87 [3]) was about -200 pmol/min. For the same molecule, the “increase in mitochondrial respiration-derived ATP” value (U87 [3]; marginally significant) was ~ 100 pmole/min, the “reduction in glycolytic ATP production” value (T98G [4]) was about -200 pmol/min and the “reduction in glycolytic ATP production” value (M059K) was ~ -250 pmole/min. The “reduction in glycolytic ATP production” value (LN18 [5]) was about -140 pmol/min, the “reduction in cell viability” value (U87 [6]; [14]) was 90-98% and the “reduction in cell viability” value (U87 [6]; [15]) was “in general, maintained”. For the same molecule, the “lethality level reached (cell viability)” value (T98G [7]) was “LD40”, the “reduction in cell viability” value (LN18 [8]; [14]) was 90-98% and the “reduction in cell viability” value (LN18 [8]; [15]) was “in general, maintained”. For the same molecule, the glycolytic activity (U87 [9]) was “drop in the glycolytic activity of those cell lines which was dose dependent”, the glycolytic activity (T98G [10]) was “drop in the glycolytic activity of those cell lines which was dose dependent” and the glycolytic activity (LN18 [11]) was “drop in the glycolytic activity of those cell lines which was dose dependent”. The glycolytic activity (MO59K) was “drop in the glycolytic activity of those cell lines which was dose dependent”, the “initial slope of NADH absorbance curve (LDH Vmax for the cell lysate volume studied)” value [12] was -0.53 and the “initial slope of NADH absorbance curve (LDH Vmax for the cell lysate volume studied)” value [13] was -0.57. The “initial slope of NADH absorbance curve (corresponds to Vmax of the enzyme)” value (LDH-A isoform; Enzyme solution, 5 mM 5-ALA, first 5 data points (8 sec), pH 6.5, no inhibitor: -2.28) was -0.51 and the activity at 5000 µM (LDH-A isoform; read-out: enzyme function as % of its Vmax) was about 22%.
